Measurements published in PMC5601625, “Defining a therapeutic window for kinase inhibitors in leukemia to avoid neutropenia” (Oncotarget, 2017).
“Also recorded” adds a separate entry of the source. Like-named read-outs stand apart in the source and are kept apart here.

Legend:
Test in all cases: Cell Titer Glo cell viability assay, 48 h
Type in all cases: cell-based, human
[1] = test system: THP-1; details: 48 h, mean of 2 independent experiments, 0 = less than 10 nM, cell line not given, read-out: IC50 of inhibitors on cell lines, m (mean)
Procedure: (§1) The activity of the kinase inhibitor collection against a panel of human leukemia cell lines was determined in cell viability assays run over 48 h using the Cell Titer Glo reagent.
(§2) Figure 1 Effects of kinase inhibition on the proliferation of leukemia cells A. Human leukemia cell lines were treated with duplicate serial dilutions of kinase inhibitors and the effect on cell viability was determined by Cell Titer Glo assay after 48 hours. […] HL-60 cells were treated with serial dilutions of mTor/PI3K B. and MEK C. inhibitors and the effect on cell viability was determined after 48 hours. Data shown is the mean ± SEM of 3 independent experiments.
(§3) Leukemia and lymphoma cell lines were grown in RPMI containing 10% FCS. […] Cell lines are routinely tested for mycoplasma and genotyped by short tandem repeating (STR) profiling to confirm identity.
(§4) Compounds were obtained from SynMedChem and dissolved at […] in DMSO. Serial 2-fold dilutions of each compound were prepared in DMSO using a liquid handling robot (Janus, Perkin Elmer). Each dilution (100nL) was transferred to duplicate tissue culture plates containing 50 μL of media containing 5 × 10^3 cells using a 384 well pin tool. Cells were incubated for 48 h and cell viability was determined using Cell Titer Glow reagents as described by the manufacturer (Promega). Data was acquired using a luminescent plate reader (Envision, Perkin Elmer) and analysed using Activity Base (IDBS, Guilford, UK) and visualised using Spotfire (TIBCO, Palo Alto, CA) as described previously. Each cell line was assayed in independent experiments on at least two occasions. […] Serial 2-fold dilutions of each compound were prepared in media containing 0.2% DMSO and 50 μl of each dilution was added to 10^4 cells in 50 μl of media. Cells were incubated for 48 h and cell viability was determined using Cell Titer Glow assay as described above.

[2] = test system: U937; details: 48 h, mean of 2 independent experiments, 0 = less than 10 nM, cell line not given, read-out: IC50 of inhibitors on cell lines, m (mean)
Procedure: as §1, §2, §3, §4

[3] = test system: JURKAT; details: 48 h, mean of 2 independent experiments, 0 = less than 10 nM, cell line not given, read-out: IC50 of inhibitors on cell lines, m (mean)
Procedure: as §1, §2, §3, §4

[4] = test system: EOL-1; details: 48 h, mean of 2 independent experiments, 0 = less than 10 nM, cell line not given, read-out: IC50 of inhibitors on cell lines, m (mean)
Procedure: as §1, §2, §3, §4

[5] = test system: KU-812; details: 48 h, mean of 2 independent experiments, 0 = less than 10 nM, cell line not given, read-out: IC50 of inhibitors on cell lines, m (mean)
Procedure: as §1, §2, §3, §4

[6] = test system: MOLT4; details: 48 h, mean of 2 independent experiments, 0 = less than 10 nM, cell line not given, read-out: IC50 of inhibitors on cell lines, m (mean)
Procedure: as §1, §2, §3, §4

[7] = test system: MEG-01; details: 48 h, mean of 2 independent experiments, 0 = less than 10 nM, cell line not given, read-out: IC50 of inhibitors on cell lines, m (mean)
Procedure: as §1, §2, §3, §4

[8] = test system: HEL.92.1.7; details: 48 h, mean of 2 independent experiments, 0 = less than 10 nM, cell line not given, read-out: IC50 of inhibitors on cell lines, m (mean)
Procedure: as §1, §2, §3, §4

[9] = test system: OCI-AML3; details: 48 h, mean of 2 independent experiments, 0 = less than 10 nM, cell line not given, read-out: IC50 of inhibitors on cell lines, m (mean)
Procedure: as §1, §2, §3, §4

[10] = test system: K562; details: 48 h, mean of 2 independent experiments, 0 = less than 10 nM, cell line not given, read-out: IC50 of inhibitors on cell lines, m (mean)
Procedure: as §1, §2, §3, §4

[11] = test system: HL-60; details: 48 h; for IC50: mean of 2 independent experiments, 0 = less than 10 nM, cell line not given, read-out: IC50 of inhibitors on cell lines, m (mean); for anti-proliferative activity in HL-60 cells: dose-response, Cell Titer Glo
Procedure: as §1, §2, §3, §4

[12] = test system: MV4;11; details: 48 h, mean of 2 independent experiments, 0 = less than 10 nM, cell line not given, read-out: IC50 of inhibitors on cell lines, m (mean)
Procedure: as §1, §2, §3, §4

| IC50 ([1]; Homo sapiens) [µM] | IC50 ([2]; Homo sapiens, U-937) [µM] | IC50 ([3]; Homo sapiens) [µM] | IC50 ([6]; Homo sapiens, MOLT-4) [µM] | IC50 ([9]; Homo sapiens, OCI-AML-3) [µM] | IC50 ([10]; Homo sapiens) [µM] | IC50 ([11]; Homo sapiens) [µM] | IC50 ([12]; Homo sapiens) [µM] | Compound | IC50 ([4]; Homo sapiens, EOL1) [µM] | IC50 ([5]; Homo sapiens, KU812) [µM] | IC50 ([7]; Homo sapiens) [µM] | IC50 ([8]; Homo sapiens) [µM] | other results |
| --- | --- | --- | --- | --- | --- | --- | --- | --- | --- | --- | --- | --- | --- |
| > 10 | > 10 | > 10 | > 10 | > 10 | > 10 | > 10 | 6.16 | COc1nccc(-c2c(-c3ccc(F)cc3)ncn2C2CCNCC2)n1 [SB242235] | 0.51 | > 10 | 2.18 | > 10 |  |
| > 10 | > 10 | > 10 | > 10 | > 10 | > 10 | > 10 | > 10 | NC(=O)c1ccc(N(C(N)=O)c2c(F)cccc2F)nc1-c1ccc(F)cc1F [VX702] | 5.5 | > 10 | > 10 | > 10 |  |
|  |  |  |  |  |  |  |  | COc1ccc(-c2cc3c(C)nc(N)nc3n([C@H]3CC[C@H](OCCO)CC3)c2=O)cn1 [PF-04691502] |  |  |  |  | anti-proliferative activity in HL-60 cells [11]: significant anti-proliferative activity |
| > 10 | 5.33 | > 10 | > 10 | 5.46 | 9.94 | 5.73 | 0.01 | CNC(=O)c1cc(Oc2ccc(NC(=O)Nc3ccc(Cl)c(C(F)(F)F)c3)cc2)ccn1 [Sorafenib] |  | 3.79 | 6.28 | > 10 |  |
| > 10 | > 10 | > 10 | > 10 | > 10 | > 10 | > 10 | 9.13 | CC(C)[C@H](CO)Nc1nc(Nc2ccc(C(=O)O)c(Cl)c2)c2ncn(C(C)C)c2n1 [Purvalanol B] | > 10 | > 10 | > 10 | > 10 |  |
| > 10 | 5.96 | > 10 | > 10 | > 10 | > 10 | 9.1 | 2.64 | CN(C)CCOc1cc(-c2cn[nH]c2)ccc1NC(=O)C1COc2ccccc2O1 (stereo not shown) [SR3677] | 0.75 | 1.53 | 8.05 | > 10 |  |
| 7.37 | 5.04 | 9.01 | 3.58 | > 10 | 9.11 | 6.62 | 0.01 | O=C(Nc1cccc(Cl)c1)Nc1ncc(CCNc2ncnc3ccsc23)s1 [SNS-314] | 0.02 | 0.83 | 8.15 | > 10 |  |
|  |  |  |  |  |  |  |  | NC(=O)c1ccc2[nH]ccc2c1 [SD169] |  |  |  |  | IC50 [1]: > 10 µM; IC50 [2]: > 10 µM; IC50 [3]: > 10 µM; IC50 [4]: 5.12 µM; IC50 [5]: > 10 µM; IC50 [6]: > 10 µM; IC50 [7]: > 10 µM; IC50 [8]: > 10 µM; IC50 [9]: > 10 µM; IC50 [10]: > 10 µM; IC50 [11]: > 10 µM; IC50 [12]: > 10 µM |
|  |  |  |  |  |  |  |  | CC(=O)Nc1cccc(-n2c(=O)n(C3CC3)c(=O)c3c(Nc4ccc(I)cc4F)n(C)c(=O)c(C)c32)c1 [GSK-1120212] |  |  |  |  | anti-proliferative activity in HL-60 cells [11]: selective activity |
|  |  |  |  |  |  |  |  | CC1=C(C(=O)Nc2cc3cn[nH]c3cc2F)C(c2ccc(C(F)(F)F)cc2)CC(=O)N1 (stereo not shown) [RHO-15] |  |  |  |  | IC50 [1]: > 10 µM; IC50 [2]: 9.64 µM; IC50 [3]: > 10 µM; IC50 [4]: 0.19 µM; IC50 [5]: 2.11 µM; IC50 [6]: > 10 µM; IC50 [7]: 5.14 µM; IC50 [8]: > 10 µM; IC50 [9]: > 10 µM; IC50 [10]: 7.75 µM; IC50 [11]: > 10 µM; IC50 [12]: 7.22 µM |
|  |  |  |  |  |  |  |  | Cc1c[nH]c(/C=C2\C(=O)Nc3ccccc32)c1CCC(=O)O [SU-5402] |  |  |  |  | IC50 [1]: > 10 µM; IC50 [2]: > 10 µM; IC50 [3]: > 10 µM; IC50 [4]: 1.43 µM; IC50 [5]: 9.28 µM; IC50 [6]: > 10 µM; IC50 [7]: > 10 µM; IC50 [8]: > 10 µM; IC50 [9]: > 10 µM; IC50 [10]: > 10 µM; IC50 [11]: > 10 µM; IC50 [12]: 0.73 µM |
| > 10 | 4.11 | 9.58 | > 10 | > 10 | 7.41 | > 10 | 7.8 | CCc1nc(-c2cccc(C)c2)c(-c2ccnc(NC(=O)c3ccccc3)c2)s1 [TAK-715] | 2.33 | 6.14 | 7.37 | > 10 |  |
|  |  |  |  |  |  |  |  | O=C(NOC[C@H](O)CO)c1ccc(F)c(F)c1Nc1ccc(I)cc1F [PD0325901] |  |  |  |  | anti-proliferative activity in HL-60 cells [11]: potent activity selectively against the HL-60 cell line; also recorded: selective activity |
| > 10 | 8.05 | > 10 | > 10 | > 10 | > 10 | > 10 | 8.28 | OCCC#Cc1nc(-c2ccc(F)cc2)c(-c2ccncc2)n1CCCc1ccccc1 [RWJ-67657] | 3.59 | 5.77 | > 10 | > 10 |  |
|  |  |  |  |  |  |  |  | CN(c1ccccc1CNc1nc(Nc2ccc3c(c2)CC(=O)N3)ncc1C(F)(F)F)S(C)(=O)=O [PF431396] |  |  |  |  | IC50 [1]: 3.66 µM; IC50 [2]: 1.23 µM; IC50 [3]: 3.61 µM; IC50 [4]: 1.52 µM; IC50 [5]: 5.24 µM; IC50 [6]: 6.42 µM; IC50 [7]: 6.32 µM; IC50 [8]: 4.07 µM; IC50 [9]: 2.96 µM; IC50 [10]: 7.1 µM; IC50 [11]: 1.64 µM; IC50 [12]: 0.16 µM |
| 3.31 | 3.42 | 3.76 | 5.93 | 2.71 | 4.06 | 1.41 | 2.59 | CN(C)CCOc1ccc(-c2nc(-c3ccncc3)c(-c3ccc4c(c3)CC/C4=N\O)[nH]2)cc1 [SB590885] | 1.3 | 5.01 | 5.04 | 5.26 |  |
|  |  |  |  |  |  |  |  | CN(C)C1CCN(C(=O)c2ccc(NC(=O)Nc3ccc(-c4nc(N5CCOCC5)nc(N5CCOCC5)n4)cc3)cc2)CC1 [PKI-587] |  |  |  |  | anti-proliferative activity in HL-60 cells [11]: significant anti-proliferative activity |
| 1.8 | 1.16 | 1.62 | 2.54 | 1.02 | 4.75 | 1.46 | 0.01 | CCN(CC)CCNC(=O)c1c(C)[nH]c(/C=C2\C(=O)Nc3ccc(F)cc32)c1C [Sunitinib] | 0.01 | 1.56 | 2.39 | 2.61 |  |
| > 10 | 6.6 | > 10 | > 10 | > 10 | > 10 | > 10 | 7 | Oc1ccc(-c2nc(-c3ccncc3)c(-c3ccc(F)cc3)[nH]2)cc1 [SB202190] | 3.68 | 9.36 | 6.83 | > 10 |  |
|  |  |  |  |  |  |  |  | CS(=O)(=O)N1CCN(Cc2cc3nc(-c4cccc5[nH]ncc45)nc(N4CCOCC4)c3s2)CC1 [GDC-0941] |  |  |  |  | anti-proliferative activity in HL-60 cells [11]: significant anti-proliferative activity |
| 5.85 | 6.31 | 2.7 | 3.69 | 3.44 | 0.59 | 3.55 | 0.04 | COC(=O)c1ccc2c(c1)NC(=O)/C2=C(\Nc1ccc(N(C)C(=O)CN2CCN(C)CC2)cc1)c1ccccc1 [Vargatef] |  | 0.24 | 0.46 | 2.97 |  |
|  |  |  |  |  |  |  |  | O=C(NOCC1CC1)c1ccc(F)c(F)c1Nc1ccc(I)cc1Cl [CI-1040] |  |  |  |  | anti-proliferative activity in HL-60 cells [11]: potent activity selectively against the HL-60 cell line; also recorded: selective activity |
